Results on five molecules are retold here after patent US20230151431A1, “METHODS AND COMPOSITIONS FOR IDENTIFYING AND TREATING GLUTAMINASE INHIBITOR-SENSITIVE CANCERS” (DANA-FARBER CANCER INSTITUTE, INC., priority 2020, published 2023).

Assay [1] has as its system SLC7A11 knock-out LU99 cells. In words: CellTiter-Glo cell viability, SLC7A11 knock-out LU99 cells vs LacZ control. The class given is cell-based, human. The procedure:
(§1) Cell viability was assayed using a modified manufacturer's protocol for CellTiter-Glo® (Promega #G7573). Cells were seeded at a density of 2000 cells per well in a 96 well black, clear bottom plate (Corning #89091-012) in 100 uL total media per well. The following day different concentrations of compounds at various doses were printed in triplicate in a random well format using the Tecan D300e Digital Dispenser. After 72 hours, 60 μL of a 1:3 solution of CellTiterGlo reagent in 1×PBS (Corning #01018002) was added per well and allowed to incubate at RT for 10 mins. Luminescence was measured with an integration time of 0.1 s using Envision Microplates Reader (PERKIN ELMER #2105-0010). Biological replicates were averaged and normalized to vehicle control. Dose curves were generated using Graphpad Prism.
Background: ATP-based viability assays read luminescence as a measure of living cells.

The test system of the next assay is NCI-H2122 cells. In words: Cell viability, NCI-H2122 cells with SLC7A11 knock-out and/or SLC25A45 over-expression. The class given is cell-based, human. To be noted: for effect of SLC7A11 knock-out and SLC25A45 over-expression on cell viability under treatment: SLC7A11 knock-out or SLC25A45 over-expression vs wild type. The procedure:
as §1

The subject of assay [2] is LU99 cells with ectopic expression of FAM3B. In words: CellTiter-Glo cell viability, LU99 cells with ectopic expression of FAM3B. Type of assay: cell-based, human. The method, then: as §1
A further assay has as its system LU99 cells. Nature of the assay: CellTiter-Glo cell viability, LU99 wild type cells. Type of assay: cell-based. To be noted: Homo sapiens, Lu-99, read-out: IC50 (percent viability). The procedure:
as §1

The subject of a further assay is 500 cancer cell lines. In words: PRISM multiplex cancer cell line viability screen. Type of assay: cell-based, human. To be noted: 5,000 small molecules against 500 cancer cell lines. The method, then: Parental cell lines were obtained from the Cancer Cell Line Encyclopedia (CCLE) project. PRISM cell line barcoding, pooling, and screening was performed as previously described with several improvements to the original method. First, the lentiviral vector was modified to encode the unique barcode identifier at the end of the puromycin resistance gene. This enables barcodes to be detected using a variant of the mRNA capture and Luminex detection method developed for the L1000 gene expression assay. Second, a set of ten inert barcodes were spiked-in to each well of each plate after cell lysis to control for variation in PCR amplification as detailed below.
Luminex technology produced .Ixb files containing data for each Luminex bead observed during detection. These .Ixb files were processed to compute Median Fluorescence Intensity (MFI) values, calculated as the median of the values obtained for all beads corresponding to a single PRISM barcode. […]
For each cell line on each plate, the distribution of MFI values observed for the DMSO-treated negative controls was compared to that of the positive controls using a robust form of the Strictly Standardized Mean Difference (SSMD*)’. Specifically, SSMD* was calculated as: […]
Cell viability was calculated as the ratio of nMFI to the median of the nMFI from the DMSO-treated negative controls for each cell line on each plate. […]

Assay [3] concerns multiple solid tumor and hematopoietic cancer types. To be noted: monotherapy, phase 1 clinical trials; cited from earlier work.
Assay [4] concerns LU99 cells over-expressing SLC25A45. Nature of the assay: CellTiter-Glo cell viability, LU99 cells over-expressing SLC25A45. Type of assay: cell-based. To be noted: Homo sapiens, Lu-99, SLC25A45 overexpression. The method, then:
as §1

A value given as a limit tells only on which side of the number the result lay.

For `O=C(Cc1ccccc1)Nc1nnc(CCSCCc2nnc(NC(=O)Cc3ccccc3)s2)s1` [BPTES, Bis-2-(5-phenylacetamido-1,3,4-thiadiazol-2-yl)ethyl sulfide], in assay [1], the “rescue from inhibitor-induced cell killing by knock-out of SLC7A11” value is recorded as “rescued sensitivity”. For the same molecule, the “effect of SLC7A11 knock-out and SLC25A45 over-expression on cell viability under treatment” value in the assay with NCI-H2122 cells is listed as “increase cell viability”.

Turning to `CN(C)c1ccc(C2Nc3ccc4ccccc4c3C3=C2C(=O)CC(C)(C)C3)cc1Br` (centres unmarked) [compound 968], the “rescue from inhibitor-induced cell killing by knock-out of SLC7A11” value in assay [1] was “not rescued”. Besides, the “effect of SLC7A11 knock-out and SLC25A45 over-expression on cell viability under treatment” value in the assay on NCI-H2122 cells is “no significant rescue of sensitivity”.

Take `O=C(Cc1cccc(OC(F)(F)F)c1)Nc1ccc(CCCCc2nnc(NC(=O)Cc3ccccn3)[se]2)nn1` [Glutaminase IN 1]: the “rescue from inhibitor-induced cell killing by knock-out of SLC7A11” value in assay [1] is given as “rescued sensitivity”. For the same molecule, in the assay on NCI-H2122 cells, the “effect of SLC7A11 knock-out and SLC25A45 over-expression on cell viability under treatment” value was “increase cell viability”.

As to `CC(=O)O[C@H]1C(=O)[C@@]2(C)[C@H]([C@H](OC(=O)c3ccccc3)[C@]3(O)C[C@H](OC(=O)[C@H](O)[C@@H](NC(=O)c4ccccc4)c4ccccc4)C(C)=C1C3(C)C)[C@]1(OC(C)=O)CO[C@@H]1C[C@@H]2O` [Paclitaxel], the “change in effects on cell death by ectopic FAM3B expression” value in assay [2] (ectopic FAM3B vs wild type) is “no change”. Further, the “effect of SLC7A11 knock-out and SLC25A45 over-expression on cell viability under treatment” value in the assay with NCI-H2122 cells was “no significant rescue of sensitivity”. Also, the IC50 with LU99 cells was determined as 2.2 nM.

`O=C(Cc1cccc(OC(F)(F)F)c1)Nc1ccc(CCCCc2nnc(NC(=O)Cc3ccccn3)s2)nn1` [Telaglenastat]: the “cell line killing in PRISM screen” value with 500 cancer cell lines was “selectively kill cell lines across a broad range of lineages”. Besides, the “rescue from inhibitor-induced cell killing by knock-out of SLC7A11” value in assay [1] was “rescued”. The half-inhibitory concentration (IC50) in assay [2] (Homo sapiens, Lu-99, ectopic expression of FAM3B) is greater than 10000 nM; with LU99 cells, 1.2 nM; in assay [4], 22 nM. Besides, the clinical response result in assay [3] was “only occasional responses”. In the assay on NCI-H2122 cells, the “effect of SLC7A11 knock-out and SLC25A45 over-expression on cell viability under treatment” value is listed as “increase cell viability”. The “sensitivity of cells with combined SLC7A11 knock-out and SLC25A45 over-expression” value in the assay on NCI-H2122 cells (combination of SLC7A11 knock-out and SLC25A45 over-expression) is “almost completely resistant”.

By IC50 is commonly meant the concentration that gives 50% inhibition.
